Tests used:
[1] = biological target: T1, Amine oxidase [flavin-containing] B (Homo sapiens, UniProt P27338); assay: biochemical; assay type: cell-based
T1 sequence (P27338 whole entry): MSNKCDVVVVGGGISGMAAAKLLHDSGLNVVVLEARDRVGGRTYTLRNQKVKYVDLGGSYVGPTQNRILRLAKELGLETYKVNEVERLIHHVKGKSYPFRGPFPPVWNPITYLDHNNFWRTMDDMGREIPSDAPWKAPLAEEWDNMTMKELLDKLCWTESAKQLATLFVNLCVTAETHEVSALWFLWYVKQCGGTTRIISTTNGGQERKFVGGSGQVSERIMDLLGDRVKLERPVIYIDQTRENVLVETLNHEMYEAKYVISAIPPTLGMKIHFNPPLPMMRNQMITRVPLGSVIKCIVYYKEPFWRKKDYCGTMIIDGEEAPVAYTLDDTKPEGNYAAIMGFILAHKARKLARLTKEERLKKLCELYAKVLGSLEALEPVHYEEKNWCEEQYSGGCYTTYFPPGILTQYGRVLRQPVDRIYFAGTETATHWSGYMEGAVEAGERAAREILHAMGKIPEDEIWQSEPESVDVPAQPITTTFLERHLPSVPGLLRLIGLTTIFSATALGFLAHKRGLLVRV

[2] = biological target: T2, Amine oxidase [flavin-containing] A (Homo sapiens, UniProt P21397); assay: biochemical
T2 sequence (P21397 whole entry): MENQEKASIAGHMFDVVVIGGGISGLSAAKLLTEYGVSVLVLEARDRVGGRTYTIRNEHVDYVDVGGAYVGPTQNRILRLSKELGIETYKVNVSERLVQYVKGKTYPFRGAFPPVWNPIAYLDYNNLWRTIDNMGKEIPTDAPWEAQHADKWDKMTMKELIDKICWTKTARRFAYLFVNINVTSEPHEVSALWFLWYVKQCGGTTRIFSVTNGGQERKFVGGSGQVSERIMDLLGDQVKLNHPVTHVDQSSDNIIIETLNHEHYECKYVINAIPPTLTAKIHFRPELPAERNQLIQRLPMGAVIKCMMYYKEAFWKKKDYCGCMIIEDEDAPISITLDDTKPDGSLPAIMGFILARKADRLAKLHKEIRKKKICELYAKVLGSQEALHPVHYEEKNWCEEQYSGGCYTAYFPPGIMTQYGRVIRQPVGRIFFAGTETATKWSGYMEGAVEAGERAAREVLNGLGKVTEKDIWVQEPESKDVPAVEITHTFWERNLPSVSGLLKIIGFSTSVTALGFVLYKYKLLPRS

[3] = biological target: T1, Amine oxidase [flavin-containing] B; assay: Inhibition of human recombinant MAO-B expressed in baculovirus infected BT1 cells at 1 mM; details: 1000 µM
[4] = biological target: T2, Amine oxidase [flavin-containing] A; assay: Inhibition of human recombinant MAO-A expressed in baculovirus infected BT1 cells at 100 uM

Row | IC50 [1] [nM] | IC50 [2] [nM] | inhibition (INH) [3] | inhibition (INH) [4] | SMILES
1 | 174 | 316 | – | – | CC(=O)N1N=C(c2ccc(OCC=C(C)C)cc2O)CC1c1ccc(OCc2ccccc2)cc1 (configuration not stated)
2 | – | – | Not Active | – | O=C(NCCN1CCOCC1)c1ccc(Cl)cc1 [MOCLOBEMIDE]
3 | 832 | – | – | Not Active | CC(C)=CCOc1ccc(C2=NN(C(N)=S)C(c3ccc(Cl)cc3)C2)c(O)c1 (configuration not stated)
4 | 52500 | – | – | Not Active | CC(C)=CCOc1ccc(C2=NN(C(N)=S)C(c3ccccc3)C2)c(O)c1 (configuration not stated)
